# Data reported in patent USRE50528E1, “Compounds and compositions for modulating EGFR mutant kinase activities” (Yuhan Corporation, priority 2014, dated 2025).
# Where two headings read alike, the source gives them in different places.
# Experiments:
# [1] = biological target: T1, EGFR mutant T790M (Homo sapiens, UniProt P00533, T790M); assay: Kinase inhibition assay, EGFR mutant T790M; conditions: biochemical potency;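 also: truncated human EGFR mutant enzyme preincubated two hours with compound, then ATP plus ULight-PolyGT peptide for one hour, Europium-labeled antibody LANCE detection, IC50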
# T1 construct: truncated human JAK3, EGFR mutants such as del E746-A750; purchased Carna Biosciences
# [2] = biological target: T2, EGFR mutant Del19 (E746-A750) (Homo sapiens, UniProt P00533, DEL746-750); assay: Kinase inhibition assay, EGFR del E746-A750; format: biochemical; conditions: read-out: EGFR mutants Del19 (E746-A750);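 also: truncated human EGFR mutant kinase, two-hour preincubation with compound, then one-hour reaction with ATP and ULight-PolyGT peptide, LANCE Europium-antibody phosphorylation readout, IC50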
# T2 construct: truncated human JAK3, EGFR mutants such as del E746-A750; purchased Carna Biosciences
# [3] = biological target: T3, EGFR mutant L858R (Homo sapiens, UniProt P00533, L858R); assay: Kinase inhibition assay, EGFR L858R; format: biochemical; conditions: read-out: EGFR mutants L858R;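 also: truncated human EGFR L858R kinase with compound preincubation, ULight-PolyGT peptide phosphorylation read by Europium-antibody Lance detection, IC50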
# T3 construct: truncated human JAK3, EGFR mutants such as del E746-A750; purchased Carna Biosciences
# [4] = biological target: T4, EGFR mutant L858R/T790M (Homo sapiens, UniProt P00533, L858R/T790M); assay: Kinase inhibition assay, EGFR L858R/T790M; format: biochemical; conditions: read-out: EGFR mutants L858R/T790M;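 also: truncated human enzyme preincubated two hours with compound, then one hour with one millimolar ATP and ULight-PolyGT peptide, Europium-labeled antibody detection, IC50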
# T4 construct: truncated human JAK3, EGFR mutants such as del E746-A750; purchased Carna Biosciences
# [5] = biological target: T5, SYK (Homo sapiens, UniProt P43405); assay: Kinase inhibition assay, SYK; format: biochemical; conditions: biochemical potency;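 also: purified full-length human SYK pre-incubated 30 min with compound, then ULight-TK peptide phosphorylation for 1 h, detected with Europium-labeled antibody in Lance buffer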
# T5 construct: Purified human, full-length SYK, KDR; purchased Carna Biosciences
Molecule,IC50 [1] [nM],IC50 [2] [nM],IC50 [3] [nM],IC50 [4] [nM],IC50 [5] [nM],"IC50 ([3]; biochemical potency, 1 mM ATP) [nM]","IC50 ([4]; biochemical potency, 1 mM ATP) [nM]"
"C=CC(=O)Nc1cc(Nc2nccc(-n3cc(CN4CCC4)c(C(C)(C)C)n3)n2)c(OC)cc1N(C)C1COC1 [Compound 103, N-(5-(4-(4-(azetidin-1-ylmethyl)-3-tert-butyl-1H-pyrazol-1-yl)pyrimidin-2-ylamino)-4-methoxy-2-(methyl(oxetan-3-yl)amino)phenyl)acrylamide]",< 20,< 20,< 20,< 20,,,
"C=CC(=O)Nc1cc(Nc2nccc(-n3cc(CN(C)C)c(C(C)C)n3)n2)c(OC)cc1N1CCCC1 [Compound 116, N-(5-(4-(4-((dimethylamino)methyl)-3-isopropyl-1H-pyrazol-1-yl)pyrimidin-2-ylamino)-4-methoxy-2-(pyrrolidin-1-yl)phenyl)acrylamide]",< 20,,,,> 1000,,
"C=CC(=O)Nc1cc(Nc2ncc(F)c(-n3cc(CN4C[C@H](O)[C@H](OC)C4)c(C)n3)n2)c(OC)cc1N1CCOCC1 [Compound 61, N-(5-(5-fluoro-4-(4-(((3S,4R)-3-hydroxy-4-methoxypyrrolidin-1-yl)methyl)-3-methyl-1H-pyrazol-1-yl)pyrimidin-2-ylamino)-4-methoxy-2-morpholinophenyl)acrylamide]",< 20,20 to 200,20 to 200,20 to 200,> 1000,,
"C=CC(=O)Nc1cc(Nc2nccc(-n3cc(CN4CCC4)c(C)n3)n2)c(OC)cc1N1CCCCC1 [Compound 18, N-(5-(4-(4-(azetidin-1-ylmethyl)-3-methyl-1H-pyrazol-1-yl)pyrimidin-2-ylamino)-4-methoxy-2-(piperidin-1-yl)phenyl)acrylamide]",< 20,,,,> 1000,,
"C=CC(=O)Nc1cc(Nc2nccc(-n3cc(CN4CCC4)c(C)n3)n2)c(OC)cc1N(C)CCN(C)C [Compound 16, N-(5-(4-(4-(azetidin-1-ylmethyl)-3-methyl-1H-pyrazol-1-yl)pyrimidin-2-ylamino)-2-((2-(dimethylamino)ethyl)(methyl)amino)-4-methoxyphenyl)acrylamide]",20 to 200,,,,> 1000,,
"C=CC(=O)Nc1cc(Nc2ncc(C)c(-n3cc(CN4CCC4)cn3)n2)c(OC(C)C)cc1N1CCOCC1 [Compound 63, N-(5-(4-(4-(azetidin-1-ylmethyl)-1H-pyrazol-1-yl)-5-methylpyrimidin-2-ylamino)-4-isopropoxy-2-morpholinophenyl)acrylamide]",20 to 200,20 to 200,201 to 1000,20 to 200,> 1000,,
"C=CC(=O)Nc1cc(Nc2nccc(-n3cc(CN(C)C)c(C(C)(C)C)n3)n2)c(OC)cc1N(C)C1COC1 [Compound 102, N-(5-(4-(3-tert-butyl-4-((dimethylamino)methyl)-1H-pyrazol-1-yl)pyrimidin-2-ylamino)-4-methoxy-2-(methyl(oxetan-3-yl)amino)phenyl)acrylamide]",< 20,< 20,< 20,< 20,> 1000,,
"C=CC(=O)Nc1cc(Nc2ncc(C)c(-n3cc(CN4CC[C@@H](O)C4)c(C)n3)n2)c(OC)cc1N1CCOCC1 [Compound 27, (R)—N-(5-(4-(4-((3-hydroxypyrrolidin-1-yl)methyl)-3-methyl-1H-pyrazol-1-yl)-5-methylpyrimidin-2-ylamino)-4-methoxy-2-morpholinophenyl)acrylamide]",< 20,,,,> 1000,,
N-(2-((2-(dimethylamino)ethyl)(methyl)amino)-5-(4-(3-((dimethylamino)methyl)-4-(trifluoromethyl)-1H-pyrrol-1-yl)-5-fluoropyrimidin-2-ylamino)-4-methoxyphenyl)acrylamide [Compound 144],< 20,,,,,,
"C=CC(=O)Nc1cc(Nc2nccc(-n3cc(CN4CC(F)C4)c(C)n3)n2)c(OC)cc1N1CCOCC1 [Compound 72, N-(5-(4-(4-((3-fluoroazetidin-1-yl)methyl)-3-methyl-1H-pyrazol-1-yl)pyrimidin-2-ylamino)-4-methoxy-2-morpholinophenyl)acrylamide]",20 to 200,,,,,,
"C=CC(=O)Nc1ccc(OC)c(Nc2nccc(-n3ccc(C)n3)n2)c1 [Compound 9, N-(4-methoxy-3-(4-(3-methyl-1H-pyrazol-1-yl)pyrimidin-2-ylamino)phenyl)acrylamide]",20 to 200,,,,> 1000,,
"C=CC(=O)Nc1cc(Nc2nccc(-n3cc(CN4CCC4)c(C4CC4)n3)n2)c(OC)cc1N1CCCC1 [Compound 111, N-(5-(4-(4-(azetidin-1-ylmethyl)-3-cyclopropyl-1H-pyrazol-1-yl)pyrimidin-2-ylamino)-4-methoxy-2-(pyrrolidin-1-yl)phenyl)acrylamide]",20 to 200,,,,> 1000,,
N-(5-(4-(4-(azetidin-1-ylmethyl)-3-methyl-1H-pyrazol-1-yl)pyrimidin-2-ylamino)-4-methoxy-2-(1H-pyrazol-1-yl)phenyl)acrylamide [Compound 53],20 to 200,,,,> 1000,20 to 200,20 to 200
"C=CC(=O)Nc1cc(Nc2nccc(-n3cc(CN4CCC4)c(C(C)(C)C)n3)n2)c(OC)cc1N(C)CCOC [Compound 101, N-(5-(4-(4-(azetidin-1-ylmethyl)-3-tert-butyl-1H-pyrazol-1-yl)pyrimidin-2-ylamino)-4-methoxy-2-((2-methoxyethyl)(methyl)amino)phenyl)acrylamide]",< 20,< 20,< 20,< 20,> 1000,,
"C=CC(=O)Nc1cc(Nc2nccc(-n3cc(CN4CCC4)c(-c4ccccc4)n3)n2)c(OC)cc1N1CCCC1 [Compound 99, N-(5-(4-(4-(azetidin-1-ylmethyl)-3-phenyl-1H-pyrazol-1-yl)pyrimidin-2-ylamino)-4-methoxy-2-(pyrrolidin-1-yl)phenyl)acrylamide]",20 to 200,< 20,20 to 200,20 to 200,,,
"C=CC(=O)Nc1cc(Nc2nccc(-n3cc(CN(C)C)c(C(C)(C)C)n3)n2)c(OC)cc1N1CCCC1 [Compound 104, N-(5-(4-(3-tert-butyl-4-((dimethylamino)methyl)-1H-pyrazol-1-yl)pyrimidin-2-ylamino)-4-methoxy-2-(pyrrolidin-1-yl)phenyl)acrylamide]",< 20,,,,> 1000,,
"C=CC(=O)Nc1cc(Nc2nccc(-n3cc(CN4CCC4)c(C(C)(C)C)n3)n2)c(OC)cc1N1CCCC1 [Compound 105, N-(5-(4-(4-(azetidin-1-ylmethyl)-3-tert-butyl-1H-pyrazol-1-yl)pyrimidin-2-ylamino)-4-methoxy-2-(pyrrolidin-1-yl)phenyl)acrylamide]",20 to 200,,,,> 1000,,
"C=CC(=O)Nc1ccc(OC)c(Nc2ncc(C)c(-n3cc(CN4CC(O)C4)cn3)n2)c1 [Compound 11, N-(3-(4-(4-((3-hydroxyazetidin-1-yl)methyl)-1H-pyrazol-1-yl)-5-methylpyrimidin-2-ylamino)-4-methoxyphenyl)acrylamide]",< 20,,,,20 to 200,,
"C=CC(=O)Nc1cc(Nc2ncc(C)c(-n3cc(CN4C[C@@H](O)[C@@H](O)C4)cn3)n2)c(OC)cc1N1CCOCC1 [Compound 20, N-(5-(4-(4-(((3R,4S)-3,4-dihydroxypyrrolidin-1-yl)methyl)-1H-pyrazol-1-yl)-5-methylpyrimidin-2-ylamino)-4-methoxy-2-morpholinophenyl)acrylamide]",< 20,,,,201 to 1000,,
"C=CC(=O)Nc1cc(Nc2nccc(-n3cc(CN4CC(O)C4)c(C)n3)n2)c(OC)cc1-c1cnn(C)c1 [Compound 58, N-(5-(4-(4-((3-hydroxyazetidin-1-yl)methyl)-3-methyl-1H-pyrazol-1-yl)pyrimidin-2-ylamino)-4-methoxy-2-(1-methyl-1H-pyrazol-4-yl)phenyl)acrylamide]",20 to 200,,,,201 to 1000,,
"C=CC(=O)Nc1cc(Nc2nccc(-n3cc(CN4CCC4)c(C(C)C)n3)n2)c(OC)cc1N1CCCC1 [Compound 117, N-(5-(4-(4-(azetidin-1-ylmethyl)-3-isopropyl-1H-pyrazol-1-yl)pyrimidin-2-ylamino)-4-methoxy-2-(pyrrolidin-1-yl)phenyl)acrylamide]",< 20,,,,> 1000,,
"C=CC(=O)Nc1cc(Nc2ncc(F)c(-n3cc(C)c(CN(C)C)c3)n2)c(OC)cc1N(C)C [Compound 143, N-(2-(dimethylamino)-5-(4-(3-((dimethylamino)methyl)-4-methyl-1H-pyrrol-1-yl)-5-fluoropyrimidin-2-ylamino)-4-methoxyphenyl)acrylamide]",< 20,,,,201 to 1000,,
"C=CC(=O)Nc1cc(Nc2ncc(C)c(-n3cc(CN4CC(O)C4)c(C)n3)n2)c(OC)cc1N1CCOCC1 [Compound 24, N-(5-(4-(4-((3-hydroxyazetidin-1-yl)methyl)-3-methyl-1H-pyrazol-1-yl)-5-methylpyrimidin-2-ylamino)-4-methoxy-2-morpholinophenyl)acrylamide]",< 20,,,,201 to 1000,,
"C=CC(=O)Nc1cc(Nc2nccc(-n3cc(CN(C)C)c(-c4ccccc4)n3)n2)c(OC)cc1N1CCCC1 [Compound 98, N-(5-(4-(4-((dimethylamino)methyl)-3-phenyl-1H-pyrazol-1-yl)pyrimidin-2-ylamino)-4-methoxy-2-(pyrrolidin-1-yl)phenyl)acrylamide]",20 to 200,< 20,20 to 200,20 to 200,,,
